Data on 1 compound can be found in patent publication US5928932A, “Isolated gene encoding an enzyme with UDP-glucose pyrophosphorylase and phosphoglucomutase activities from Cyclotella cryptica” (priority 1996, dated 1999).

The test has as its target T1, purified UGPase/PGMase protein (Cyclotella cryptica, UniProt A0ABD3PLY7).
T1 construct: both domains act
In kind it is biochemical. The following applies: determined via double reciprocal plots; glucose-6-phosphate versus glucose-1-phosphate as substrate. Here is the method: P-4252) were added to each reaction and incubated for one hour at 30° C. The reaction mixtures were spotted onto separate 2.5 cm DE81 filter disks (Whatman Inc.; Fairfield, N.J.), which were then washed in five consecutive batches of water (200 mL each). The radioactivity of each filter was determined by liquid scintillation counting.

T1 sequence (A0ABD3PLY7 entry or part of it R291K): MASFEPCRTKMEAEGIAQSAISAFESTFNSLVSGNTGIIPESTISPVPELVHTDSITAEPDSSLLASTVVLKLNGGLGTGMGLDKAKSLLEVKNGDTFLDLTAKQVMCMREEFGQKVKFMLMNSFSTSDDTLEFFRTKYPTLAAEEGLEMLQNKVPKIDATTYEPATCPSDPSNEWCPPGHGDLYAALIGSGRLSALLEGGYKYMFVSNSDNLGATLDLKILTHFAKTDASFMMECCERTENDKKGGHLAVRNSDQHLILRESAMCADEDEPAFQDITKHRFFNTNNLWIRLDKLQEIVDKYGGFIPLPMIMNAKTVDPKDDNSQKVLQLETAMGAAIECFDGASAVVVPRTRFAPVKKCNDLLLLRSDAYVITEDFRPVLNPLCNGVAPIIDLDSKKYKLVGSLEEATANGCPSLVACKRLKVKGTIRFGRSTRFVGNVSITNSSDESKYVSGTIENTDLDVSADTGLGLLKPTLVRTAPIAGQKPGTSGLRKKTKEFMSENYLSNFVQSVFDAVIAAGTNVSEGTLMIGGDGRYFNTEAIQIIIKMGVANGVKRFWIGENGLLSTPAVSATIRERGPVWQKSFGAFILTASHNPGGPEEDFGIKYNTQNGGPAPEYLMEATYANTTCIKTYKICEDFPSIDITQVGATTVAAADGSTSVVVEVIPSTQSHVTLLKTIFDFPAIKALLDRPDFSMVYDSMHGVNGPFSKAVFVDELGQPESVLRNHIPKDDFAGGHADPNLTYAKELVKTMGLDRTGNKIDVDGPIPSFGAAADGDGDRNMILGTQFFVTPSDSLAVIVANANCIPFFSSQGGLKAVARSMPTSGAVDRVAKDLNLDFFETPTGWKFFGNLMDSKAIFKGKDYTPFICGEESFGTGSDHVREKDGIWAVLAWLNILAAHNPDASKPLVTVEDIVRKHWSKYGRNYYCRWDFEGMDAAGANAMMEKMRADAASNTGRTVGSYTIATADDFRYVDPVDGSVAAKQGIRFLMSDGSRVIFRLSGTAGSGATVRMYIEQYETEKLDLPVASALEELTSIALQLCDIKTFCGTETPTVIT

With `O=P(O)(O)OC[C@H]1OC(O)[C@H](O)[C@@H](O)[C@@H]1O` (stereo partly shown) [glucose-6-phosphate], the “maximum velocity of UDP-glucose formation, fold less than for glucose-1-phosphate” value was determined as 13 fold.
